Laboratory results reported in patent US9387221B2, “SDF-1 binding nucleic acids and the use thereof in cancer treatment” (NOXXON Pharma AG, priority 2010, dated 2016).
“Also recorded” adds a separate entry of the source. {PEG40k} = 40 kDa polyethylene glycol

What was measured:
[1] = tested on: SDF-1 dose-dependent adhesion of Jurkat cells to fibronectin; assay: Adhesion of Jurkat cells to fibronectin; type: cell-based, human; details: SDF-1 plus increasing concentrations of Spiegelmer
Protocol: The T cell leukemia Jurkat (ACC 282) were purchased from the DSMZ were maintained in RPMI medium 1640 GlutaMAX (Invitrogen) supplemented with 10% FBS (Biochrom) and penicillin-streptomycin. For the adhesion experiments 96-well culture plates were incubated with 10 μg/mL human fibronectin (R&D systems) in PBS for 2 hours at 37° C. […] The wells were then washed with RPMI medium. Jurkat cells from logarithmic growth phase were washed with RPMI medium (+0.1% BSA) and incubated with various concentrations of human SDF-1 (R&D systems) and NOX-A12 for 15 minutes at 37° C. NOX-A12 and SDF-1 were preincubated for 30 minutes. lx 105 stimulated Jurkat cells were seeded to the Fibronectin-coated 96-well plates and incubated for 30 minutes. The plates were then washed five times with RPMI medium. Attached cells were quantified by using Cell Titer Glo Reagent (Promega). Therefor, 50 μL RPMI medium was added to each well, followed by 50 μL of Cell Titer Glo Reagent. The plates were mixed for two minutes, followed by incubation at room temperature for 10 minutes. Cell number was quantified by relative luminescence signal.

human SDF-1α = human SDF-1α (Homo sapiens, UniProt P48061); assay: Surface plasmon resonance measurement (Biacore 2000); type: binding; details: Spiegelmer (L-RNA), 37° C.
human SDF-1α, sequence (P48061 22-89): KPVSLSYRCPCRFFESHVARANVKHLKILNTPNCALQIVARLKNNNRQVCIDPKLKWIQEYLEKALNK
Protocol: The Biacore 2000 instrument (Biacore AB, Uppsala, Sweden) was used to analyze binding of Spiegelmers to human SDF-1α. When coupling of human SDF-1α was to be achieved via amine groups, human SDF-1α was dialyzed against water for 1-2 h (Millipore VSWP mixed cellulose esters; pore size, […]) to remove interfering amines. CM4 sensor chips (Biacore AB, Uppsala, Sweden) were activated before protein coupling by a 35-μl injection of a 1:1 dilution of 0.4 M NHS and 0.1 M EDC at a flow of 5 μl/min. Human MCP-1 or human SDF-1α was then injected in concentrations of 0.1-1.5 μg/ml at a flow of 2 μl/min until the instrument's response was in the range of 1000-2000 RU (relative units). Unreacted NHS esters were deactivated by injection of 35 μl ethanolamine hydrochloride solution (pH 8.5) at a flow of 5 μl/min. The sensor chip was primed twice with binding buffer and equilibrated at 10 μl/min for 1-2 hours until the baseline appeared stable. For all proteins, kinetic parameters and dissociation constants were evaluated by a series of Spiegelmer injections at concentrations of 1000, 500, 250, 125, 62.5, 31.25, and 0 nM in selection buffer (Tris-HCl, 20 mM; NaCl, 137 mM; KCl, 5 mM; CaCl2, 1 mM; MgCl2, 1 mM; Tween20, 0.1% [w/v]; pH 7.4). In all experiments, the analysis was performed at 37° C. using the Kinject command defining an association time of 180 and a dissociation time of 360 seconds at a flow of 10 μl/min. Data analysis and calculation of dissociation constants (KD) was done with the BIAevaluation 3.0 software (BIACORE AB, Uppsala, Sweden) using the Langmuir 1:1 stochiometric fitting algorithm.

[2] = tested on: SDF-1 induced sprouting, rings from rat aorta; assay: Aortic ring sprouting assay; type: cell-based; details: 10 nM SDF-1 + 1 μM Spiegelmer, 6 days; listed as 193-G2-012-5′-PEG
Protocol: After 6 to 7 days, sprouting (i.e. outgrowth of endothelial cells) was analysed by taking pictures and determining a sprouting index.
Aortae from male rats were obtained from Bagheri Life sciences (Berlin, Germany). The aortae were prepared freshly and transported on ice in MCDB 131-Medium (Invitrogen, Karlsruhe, Germany) containing 50 units/ml penicillin, 50 μg/ml streptomycin (both Invitrogen, Karlsruhe, Germany) and 2.5 μg/ml fungizone (Cambrex, USA).
For an experiment a single aorta was transferred to a cell culture dish together with the medium and residual connective tissue was removed. Then the aorta was cut with a scalpel into rings of about 1 to 2 mm length. The rings were washed intensively (at least five times) in Medium199 (Invitrogen, Karlsruhe, Germany) and then placed in wells of a 24 well plate, containing 450 μl of collagen solution per well. […]
Sprouting was documented by taking pictures with a digital camera. […] Pictures were analysed with the Scion Image image processing software. […] A plot histogram along this line was generated by the software, histograms were printed and peaks (representing sprouts crossing the line) were counted. […] 4 to 5 rings per condition were evaluated. […]

5′-40 kDa-PEG-GCGUGGUGUGAUCUAGAUGUAUUGGCUGAUCCUAGUCAGGUACGC (5' {PEG40k}, sugars by position and backbone not given here) [NOX-A12]
reversal of SDF-1 effect on adhesion of Jurkat cells to fibronectin [1]: reverse this effect | Kd (human SDF-1α): 0.2 nM | blockage of SDF-1 induced sprouting (sprouting index) [2]: significantly different from that for SDF-1; also recorded: could be blocked
